Key:
[1] = target: T1, MstH (Aspergillus niger, UniProt A5ABZ0); experiment: competition of […]-glucose uptake in yeast cells; type: cell-based; details: read-out: % inhibition at 10 mM
T1 construct: gene An15g03940; also called pRS426H7), expressed in S. cerevisiae EBY.VW4000 hexose transporter null mutant, whole-cell uptake
T1 sequence (A5ABZ0 1-527): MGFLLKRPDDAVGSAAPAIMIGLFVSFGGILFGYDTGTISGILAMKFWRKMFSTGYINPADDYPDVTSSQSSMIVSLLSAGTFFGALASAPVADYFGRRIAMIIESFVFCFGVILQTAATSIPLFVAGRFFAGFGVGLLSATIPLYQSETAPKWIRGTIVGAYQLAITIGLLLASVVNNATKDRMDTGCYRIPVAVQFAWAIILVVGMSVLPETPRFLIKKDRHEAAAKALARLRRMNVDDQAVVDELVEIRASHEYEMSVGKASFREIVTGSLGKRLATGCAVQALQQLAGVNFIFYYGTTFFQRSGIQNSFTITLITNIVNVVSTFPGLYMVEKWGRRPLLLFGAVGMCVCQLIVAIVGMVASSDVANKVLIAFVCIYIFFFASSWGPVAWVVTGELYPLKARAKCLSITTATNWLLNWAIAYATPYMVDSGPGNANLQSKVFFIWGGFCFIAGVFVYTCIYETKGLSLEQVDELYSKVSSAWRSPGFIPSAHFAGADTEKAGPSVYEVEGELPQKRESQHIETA

[2] = target: T2, MstG (Aspergillus niger, UniProt A2QKT1); experiment: competition of […]-glucose uptake in yeast cells; type: cell-based; details: read-out: % inhibition at 10 mM
T2 construct: gene An05g01290; also called pRS426H7), expressed in S. cerevisiae EBY.VW4000 hexose transporter null mutant, whole-cell uptake
T2 sequence (A2QKT1 1-542): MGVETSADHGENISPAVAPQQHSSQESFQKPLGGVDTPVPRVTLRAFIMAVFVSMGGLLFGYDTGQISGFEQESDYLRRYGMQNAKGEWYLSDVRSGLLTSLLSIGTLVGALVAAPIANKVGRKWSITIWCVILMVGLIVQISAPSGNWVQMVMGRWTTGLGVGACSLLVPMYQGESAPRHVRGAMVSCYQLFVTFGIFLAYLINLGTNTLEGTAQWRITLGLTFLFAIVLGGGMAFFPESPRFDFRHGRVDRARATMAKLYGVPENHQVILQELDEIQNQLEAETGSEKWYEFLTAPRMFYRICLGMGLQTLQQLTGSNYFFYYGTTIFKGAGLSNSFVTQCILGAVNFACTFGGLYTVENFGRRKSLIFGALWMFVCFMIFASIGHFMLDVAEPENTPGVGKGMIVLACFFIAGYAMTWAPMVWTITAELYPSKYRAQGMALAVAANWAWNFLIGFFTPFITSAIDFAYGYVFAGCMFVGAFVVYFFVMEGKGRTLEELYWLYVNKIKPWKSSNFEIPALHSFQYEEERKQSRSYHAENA

Row | Compound | inhibition at 10000 µM [1] [%] | inhibition at 10000 µM [2] [%]
1 | OC[C@H]1OC(O)[C@@H](O)[C@@H](O)[C@@H]1O (some centres unmarked) [mannose] | 70 | –
2 | OCC1(O)OC[C@@H](O)[C@@H](O)[C@@H]1O (some centres unmarked) [fructose] | 50 | 29
3 | OC[C@H]1OC(O)[C@H](O)[C@@H](O)[C@H]1O (some centres unmarked) [galactose] | – | 39
4 | OC1OC[C@@H](O)[C@H](O)[C@H]1O (some centres unmarked) [xylose] | – | 25
